Test results as given in publication PMC7555312, “Functional Characterization of Temporin-SHe, a New Broad-Spectrum Antibacterial and Leishmanicidal Temporin-SH Paralog from the Sahara Frog (Pelophylax saharicus)” (International Journal of Molecular Sciences, 2020).
Where no end group is shown, it is not given here.

How the values were obtained:
[1] = system: S. aureus ATCC 25923; assay: Membrane depolarization assay, DiSC3(5); assay type: cell-based, Staphylococcus aureus; conditions: peptide at 2-fold MIC; 10^7 cfu/mL in PBS, 1 µM DiSC3(5), 37 °C, 20 min recording; representative of three assays
Procedure: The depolarization of S. aureus ATCC 25923 cytoplasmic membrane induced by temporin-SHe and temporin-SHd was investigated using the membrane potential-sensitive cyanine dye DiSC3(5) (3,3′-dipropylthiadicarbocyanine iodide), as detailed in [29]. An amount of 700 µL of bacteria resuspended in PBS (10^7 cfu/mL) containing 1 μM DiSC3(5) were preincubated in the dark during 10 min at 37 °C, and then 100 µL of 1 mM KCl were added to the mixture. Fluorescence (λex = 622 nm; λem = 670 nm) was recorded during 20 min at 37 °C (Varian Cary Eclipse fluorescence spectrophotometer) after addition of the peptide (200 µL, final concentration: 2-fold above the MIC). Three independent experiments were performed and the results correspond to a representative experiment with negative (PBS) and positive (melittin) controls.

[2] = system: S. aureus ST1065; assay: Time-killing assay; assay type: cell-based, Staphylococcus aureus; conditions: two-fold MIC (6.25 µM temporin-SHe), 10^6 cfu/mL in PBS, plate counting
Procedure: Aliquots were withdrawn at different times and spread onto LB agar plates for cell counting after overnight incubation at 37 °C. Controls corresponding to the bacterial suspensions without peptide were also run. Two independent experiments were performed in triplicate. Results were expressed as the mean ± S.D. of a representative experiment.

[3] = system: E. coli ATCC 35218; assay type: cell-based, Escherichia coli
Procedure: (§3) Antimicrobial activity was assessed with a liquid growth inhibition assay performed according to a previously described protocol [14] using the Clinical and Laboratory Standards Institute (CLSI) guidelines. Briefly, in 96-well microtitration plates, mid-log-phase bacteria diluted to 10^6 CFU/mL in Mueller–Hinton (MH) broth were added to different concentrations of synthetic temporin-SHe (1–200 µM, final concentrations) and incubated at 37 °C for 18–20 h, under shaking (150 rpm). For E. faecalis, L. ivanovii and yeasts/fungi, 10^6 CFU/mL suspensions were prepared in LB broth, brain heart infusion (BHI) medium and Yeast Peptone Dextrose (YPD) medium, respectively, and incubation was performed at 30 °C for yeasts/fungi. […] MIC values represent the average of three independent experiments, each performed in triplicate with negative (no peptide) and positive (formaldehyde 0.7%) controls.

[4] = system: P. aeruginosa ATCC 27853; assay type: cell-based, Pseudomonas aeruginosa
Procedure: as §3

[5] = system: S. aureus ATCC 25923; assay type: cell-based, Staphylococcus aureus
Procedure: as §3

[6] = system: E. coli ATCC 25922; assay type: cell-based, Escherichia coli
Procedure: as §3

[7] = system: human THP-1 monocytes; assay: Cytotoxicity, MTT assay; conditions: THP-1, 72 h, 37 °C, calculated mean from dose–response curves
Procedure: Hemolytic activity of temporin-SHe was determined against human red blood cells (RBCs), as described in [13]. After incubating the peptide (1–200 µM, final concentrations) with RBCs (2 × 10^7 cells) in 100 µL PBS for 1 h at 37 °C, centrifugation was completed (12,000× g, 15 s) and the absorbance of the supernatant was measured at 450 nm. RBCs suspended in PBS or 0.1% (v/v) Triton X-100 yielded an absorbance associated with 0% and 100% hemolysis, respectively. The percentage of hemolysis was calculated as follow: Hemolysis (%) = [A450 (RBCs with peptide)–A450 (RBCs in PBS)]/[A450 (RBCs with Triton X-100)–A450 (RBCs in PBS)]. Cytotoxicity of temporin-SHe was also assessed on human leukemia monocyte cell line THP-1. Briefly, monocytes (6.25 × 10^5 cells/mL) were incubated with different peptide concentrations (3–50 µM, final concentrations) for 72 h at 37 °C, then cell viability was determined by the MTT assay according to a previously described protocol. Results were expressed as the mean of two independent experiments performed in triplicate.

[8] = system: C. parapsilosis ATCC 22019; assay type: cell-based, Candida parapsilosis
Procedure: as §3

[9] = system: L. ivanovii (Li4pVS2); conditions: liquid growth inhibition (CLSI), 10^6 CFU/mL in brain heart infusion (BHI) medium, 37 °C, 18–20 h, OD 630 nm; mean of three independent experiments in triplicate
Procedure: (§1) Antibacterial activity of temporin-SHe was evaluated against Gram-positive bacteria including S. aureus strains (ATCC 25923, ST1065), antibiotic-resistant S. aureus strains (ATCC 43300, ATCC BAA-44), E. faecalis (ATCC 29212), B. megaterium, and L. ivanovii (Li4pVS2), and Gram-negative bacteria including E. coli strains (ATCC 25922, ATCC 35218, ML-35p), S. enterica (serotype Enteritidis), P. aeruginosa (ATCC 27853), A. baumannii (ATCC 19606) and K. pneumoniae (ATCC 13883). Antifungal activity was evaluated against C. albicans (ATCC 90028), C. parapsilosis (ATCC 22019) and S. cerevisiae. ATCC strains were purchased from American-Type Culture Collection (ATCC, Virginia, VA, USA). Antiparasitic activity was determined against promastigotes of several species of Leishmania responsible for visceral, cutaneous and mucocutaneous leishmaniases: L. infantum (strain MHOM/MA/67/ITMAP-263), L. major (strain MHOM/SU/73/5-ASKH), and L. braziliensis (strain MHOM/BR/75/M2904), respectively. Cytotoxicity was assessed against human red blood cells and THP-1 monocytes. Peripheral blood was obtained from healthy adult donors (Établissement Français du Sang, Paris, France). All donors signed informed consent allowing the use of their blood for research purposes.
(§2) Antimicrobial activity was assessed with a liquid growth inhibition assay performed according to a previously described protocol using the Clinical and Laboratory Standards Institute (CLSI) guidelines. Briefly, in 96-well microtitration plates, mid-log-phase bacteria diluted to 10^6 CFU/mL in Mueller–Hinton (MH) broth were added to different concentrations of synthetic temporin-SHe (1–200 µM, final concentrations) and incubated at 37 °C for 18–20 h, under shaking (150 rpm). For E. faecalis, L. ivanovii and yeasts/fungi, 10^6 CFU/mL suspensions were prepared in LB broth, brain heart infusion (BHI) medium and Yeast Peptone Dextrose (YPD) medium, respectively, and incubation was performed at 30 °C for yeasts/fungi. […] MIC values represent the average of three independent experiments, each performed in triplicate with negative (no peptide) and positive (formaldehyde 0.7%) controls.

[10] = system: S. aureus ATCC BAA-44
Procedure: as §1, §2

[11] = system: all tested Gram-positive bacteria; conditions: range over all tested Gram-positive bacteria
Procedure: as §1, §2

[12] = system: S. enterica (serotype Enteritidis)
Procedure: as §1, §2

[13] = system: S. cerevisiae; assay type: cell-based, Saccharomyces cerevisiae
Procedure: as §3

[14] = system: E. coli ML-35p; assay type: cell-based, Escherichia coli; conditions: liquid growth inhibition (CLSI), 10^6 CFU/mL in MH broth, 37 °C, 18–20 h, OD 630 nm; mean of three independent experiments in triplicate
Procedure: as §3

[15] = system: B. megaterium; assay type: cell-based, Bacillus megaterium
Procedure: as §3

**Q.** What does the source list for FLPALAGIAGLLGKIF-NH2 [Temporin-SHe]?
**A.** membrane depolarization (DiSC3(5) fluorescence increase) [1]: instantaneous; time to complete killing [2]: ≤ 5 min; MIC [3]: 50 µM; MIC [4]: 60 µM; MIC [5]: 3.12 µM; MIC [6]: 25 µM; LC50 (lethal concentration 50) [7]: 11.4 µM; MIC [8]: 50 µM; MIC [9]: 5 µM; MIC [10]: 3.12 µM; MIC range [11]: 1.56 to 12.5 µM; MIC [12]: 100 µM; MIC [13]: 12.5 µM; MIC [14]: 50 µM; MIC [15]: 1.56 µM
